Broadly, the viability is a read-out of living cells in per cent, often relative to untreated cells.

In brackets after ≈: the same amount, converted by molar mass.

The subject of series [1] is M. bovis (ATCC 27290). The series is described as follows: microbe, parasite or virus in culture. The settings on record: for MIC: Mycobacterium tuberculosis variant bovis, ATCC27290, read-out: MIC M. bovis. The series is classed as cell-based, Mycobacterium bovis.
Series [2] has as its system M. tuberculosis H37RV (ATCC 27294). The series is described as follows: microbe, parasite or virus in culture. Type of series: cell-based, Mycobacterium tuberculosis. The following applies: for MIC: Mycobacterium tuberculosis, ATCC27294|H37RV, read-out: MIC M. tb H37Rv.
Series [3] deals with Mycobacterium smegmatis (ATCC 1441). Briefly: microbe, parasite or virus in culture. The series is classed as cell-based. The following applies: for MIC: Mycolicibacterium smegmatis, ATCC1441, 24 h, read-out: MIC M. smegmatis.
The subject of series [4] is pathogenic and non-pathogenic Mycobacterium strains. The series is classed as cell-based.
In series [5] the test system is M. fortuitum (ATCC 6841). Briefly: microbe, parasite or virus in culture. The settings on record: Mycolicibacterium fortuitum, ATCC6841, 24 h, read-out: MIC M. fortuitum. The series is classed as cell-based, Mycobacterium fortuitum.
The test system of series [6] is Vero monkey kidney cells. The series is classed as cell-based.
The test system of series [7] is Caco-2 cells. The series is classed as cell-based, human.
The test system of series [8] is C3A cells. Type of series: cell-based.
Series [9] concerns HepG2 liver cells. The settings on record: human.
In series [10] the test system is M. aurum (NCTC 10437). The series is described as follows: microbe, parasite or virus in culture. The settings on record: Mycolicibacterium aurum, NCTC10437, read-out: MIC M. aurum. The series is classed as cell-based, Mycobacterium aurum.
Series [11] is described as follows: in vitro. The following applies: human, Cell viability of HepG2 cells treated with the toxicant alone.
In series [12] the test system is Mycobacterium. The settings on record: antimycobacterial activity; ref Boonphong et al., 2007; cited from earlier work.
The subject of series [13] is HepG2 cells. The settings on record: tert-butyl hyperoxide induced-toxicity on HepG2 cells; ref Kim et al. (2011); cited from earlier work.

As for 4′-methoxykaempferol, in series [1], the “MIC M. bovis” value is 125 µg/mL. For the same molecule, the “MIC M. tb H37Rv” value in series [2] was 125 µg/mL. The “MIC M. smegmatis” value in [3] is 250 µg/mL. For the same molecule, the “Antimycobacterial activity in words” value in [4] is given as “weak”.
As to `COc1ccc(C2CC(=O)c3c(OC)cc(OC)cc3O2)cc1` (stereo not drawn) [5,7,4′-trimethoxy flavanone], the MIC was found to be 63 µg/mL (≈ 200 µM) in series [1], 31 µg/mL (≈ 98.6 µM) in [2], 63 µg/mL (≈ 200 µM) in [5] and 63 µg/mL (≈ 200 µM) in [3]. Besides, the “Selectivity index LC50/MIC M. bovis” value in series [6] came to 3.206; in series [7], 3.175; in series [8], 3.174. For the same molecule, the “Selectivity index LC50/MIC M. fortuitum” value in series [6] was 3.206; in series [7], 3.175; in series [8], 3.174. Besides, the “Selectivity index LC50/MIC M. smegmatis” value in series [6] was 3.206; in series [7] it was 3.175; in series [8] it was 3.174. Also, the “Selectivity index LC50/MIC M. tb H37RV” value in series [7] and in [8] was 6.452 in each case. The “Antimycobacterial activity in words” value in [4] was “good activity”. Further, the “Percentage hepatoprotective activity (cell viability)” value in series [9] is listed as 85.674±0.0618%.
Turning to `COc1ccc(-c2oc3cc(OC)cc(O)c3c(=O)c2OC)cc1` [5‑hydroxy-3,7,4′-trimethoxyflavone], the MIC in series [1], in series [2], in series [5] and in [3] was 63 µg/mL (≈ 192 µM) each time. Moreover, the figures for the “Selectivity index LC50/MIC M. fortuitum” value in series [6], in series [7] and in series [8] were 3.127, 2.524 and 3.174, respectively. Besides, the figures for the “Selectivity index LC50/MIC M. smegmatis” value in series [6], in [7] and in series [8] were 3.127, 2.524 and 3.174, respectively. The “Selectivity index LC50/MIC M. tb H37RV” value is 3.127 in series [6], 2.524 in series [7] and 3.174 in series [8]. Further, the “Selectivity index LC50/MIC M. bovis” value came to 2.524 in series [7] and 3.174 in series [8]. In addition, the “Antimycobacterial activity in words” value in [4] is “good activity”. In addition, the “Percentage hepatoprotective activity (cell viability)” value in [9] came to 89.277±0.023%.
Regarding `CO[C@H]1/C=C/O[C@@]2(C)Oc3c(C)c(O)c4c(O)c(c(/C=N/N5CCN(C)CC5)c(O)c4c3C2=O)NC(=O)/C(C)=C\C=C\[C@H](C)[C@H](O)[C@@H](C)[C@@H](O)[C@@H](C)[C@H](OC(C)=O)[C@@H]1C` [Rif (+ve con), rifampicin, reference compound], the MIC was determined as 4 µg/mL (≈ 4.86 µM) in [1]; 0.24 µg/mL (≈ 0.292 µM) in [2]; 4 µg/mL (≈ 4.86 µM) in series [10]; 63 µg/mL (≈ 76.6 µM) in [5]; 3.9 µg/mL (≈ 4.74 µM) in series [3]. In series [6], the “Selectivity index LC50/MIC M. aurum” value stood at 23.500. Further, the “Selectivity index LC50/MIC M. bovis” value in series [6] amounted to 23.500. The “Selectivity index LC50/MIC M. fortuitum” value in [6] is reported as 1.492. In series [6], the “Selectivity index LC50/MIC M. smegmatis” value is recorded as 24.103. For the same molecule, the “Selectivity index LC50/MIC M. tb H37RV” value in [6] is over 100. Besides, the “Cell viability of HepG2 cells treated with the toxicant alone” value in series [9] stood at 65.27±0.184%. Also, the viability in series [11] was 65%.
As for `[H]/N=C(/N)N[C@H]1[C@H](O)[C@@H](O)[C@H](O[C@@H]2O[C@@H](C)[C@](O)(C=O)[C@H]2O[C@@H]2O[C@@H](CO)[C@H](O)[C@@H](O)[C@@H]2NC)[C@@H](N/C(N)=N\[H])[C@@H]1O` [Strep (+ve con), streptomycin, reference compound], the MIC in series [1] is 4 µg/mL (≈ 6.88 µM); in series [2], 0.24 µg/mL (≈ 0.413 µM); in [10], 4 µg/mL (≈ 6.88 µM); in [5], over 1000 µg/mL; in series [3], 3.9 µg/mL (≈ 6.71 µM).
In the case of `COc1cc2oc(-c3ccc(O)cc3O)c(CC=C(C)C)c(=O)c2c(O)c1/C=C/C(C)C` [artocarpin], in series [12], the MIC is 3 µg/mL (≈ 6.87 µM).
As to `O=c1c(O[C@@H]2O[C@@H](CO)[C@H](O)[C@H]2O)c(-c2ccc(O)c(O)c2)oc2cc(O)cc(O)c12` [avicularin], the “Hepatoprotective activity in words” value in series [13] was “significant hepatoprotective activity”.
`O=c1c(O[C@@H]2O[C@H](CO)[C@@H](O)[C@H](O)[C@H]2O)c(-c2ccc(O)c(O)c2)oc2cc(O)cc(O)c12` [hirsutrin]: the “Hepatoprotective activity in words” value in [13] was “significant hepatoprotective activity”.
Regarding `O=c1c(O)c(-c2ccc(O)c(O)c2)oc2cc(O)cc(O)c12` [quercetin], the “Hepatoprotective activity in words” value in series [13] was “significant hepatoprotective activity”.
For chaplashin, the MIC in [12] is 3 µg/mL.

Source of the values: paper PMC10182713 (South African Journal of Botany, 2023).
